# Test results from patent US8466168B2, “Tricyclic alkylaminomethyloxazolidinone derivatives” (Actellon Pharmaceuticals Ltd., priority 2008, dated 2013).
# System: S. aureus A798
# Experiment: MIC determination by microdilution in cation-adjusted Mueller-Hinton Broth (CLSI M7-A7)
# Format: cell-based
# Conditions: Staphylococcus aureus, microdilution method, strain S. aureus A798
# Method: Minimal inhibitory concentrations (MICs; mg/l) were determined in cation-adjusted Mueller-Hinton Broth by a microdilution method following the description given in “Methods for Dilution Antimicrobial Susceptibility Tests for Bacteria that Grow Aerobically”, Approved standard, 7th ed., Clinical and Laboratory Standards Institute (CLSI) Document M7-A7, Wayne, Pa., USA, 2006. All Example compounds were tested against several Gram positive and Gram negative bacteria such as S. aureus, E. faecalis, S. pneumoniae, M catarrhalis, A. baumanii, E. coli or P. aeruginosa.
row,Structure (SMILES),MIC [µg/mL]
1,"COc1ccc2ccc3c(c2n1)C(CCNC[C@@H]1CN(c2ccc4c(c2)NC(=O)CO4)C(=O)O1)CO3 (mixture of isomers) [Example 7, 6-((R)-5-{[2-((RS)-2-methoxy-8,9-dihydro-furo[2,3-h]quinolin-9-yl)-ethylamino]-methyl}-2-oxo-oxazolidin-3-yl)-4H-benzo[1,4]oxazin-3-one]",≤ 0.031
2,"COc1ccc2ncc3c(c2n1)CC(CNC[C@@H]1CN(c2ccc4c(c2)NC(=O)CS4)C(=O)O1)CN3 (mixture of isomers) [Example 5, 6-((R)-5-{[((RS)-6-methoxy-1,2,3,4-tetrahydro-1,5,9-triaza-phenanthren-3-ylmethyl)-amino]-methyl}-2-oxo-oxazolidin-3-yl)-4H-benzo[1,4]thiazin-3-one]",≤ 0.031
3,"COc1ccc2ccc3c(c2n1)C(CNC[C@@H]1CN(c2ccc4c(c2)NC(=O)CS4)C(=O)O1)CO3 (mixture of isomers) [Example 8, 6-((R)-5-{[((RS)-2-methoxy-8,9-dihydro-furo[2,3-h]quinolin-9-ylmethyl)-amino]-methyl}-2-oxo-oxazolidin-3-yl)-4H-benzo[1,4]thiazin-3-one]",≤ 0.031
4,"COc1ccc2ncc3c(c2n1)CC(CNC[C@@H]1CN(c2ccc4c(c2)NC(=O)CS4)C(=O)O1)CO3 (mixture of isomers) [Example 4, 6-((R)-5-{[((RS)-6-methoxy-3,4-dihydro-2H-1-oxa-5,9-diaza-phenanthren-3-ylmethyl)-amino]-methyl}-2-oxo-oxazolidin-3-yl)-4H-benzo[1,4]thiazin-3-one]",≤ 0.031
5,"COc1ccc2ccc3c(c2n1)CC(CNC[C@@H]1CN(c2ccc4c(c2)NC(=O)CO4)C(=O)O1)CO3 (mixture of isomers) [Example 2, 6-((R)-5-{[((RS)-6-methoxy-3,4-dihydro-2H-1-oxa-5-aza-phenanthren-3-ylmethyl)-amino]-methyl}-2-oxo-oxazolidin-3-yl)-4H-benzo[1,4]oxazin-3-one]",≤ 0.031
6,"COc1ccc2ncc3c(c2n1)C(CCNCC[C@@H]1CN(c2ccc4c(c2)NC(=O)CS4)C(=O)O1)CO3 (mixture of isomers) [Example 13, 6-((R)-5-{2-[2-((RS)-8-methoxy-1,2-dihydro-3-oxa-5,9-diaza-cyclopenta[a]naphthalen-1-yl)-ethylamino]-ethyl}-2-oxo-oxazolidin-3-yl)-4H-benzo[1,4]thiazin-3-one]",≤ 0.031
7,"COc1ccc2ncc3c(c2n1)C(CCNC[C@H]1CN(c2ccc4c(c2)NC(=O)CS4)C(=O)O1)CO3 (mixture of isomers) [Example 12, 6-((S)-5-{[2-((RS)-8-methoxy-1,2-dihydro-3-oxa-5,9-diaza-cyclopenta[a]naphthalen-1-yl)-ethylamino]-methyl}-2-oxo-oxazolidin-3-yl)-4H-benzo[1,4]thiazin-3-one]",≤ 0.031
8,"COc1ccc2ncc3c(c2n1)C(CCNC[C@@H]1CN(c2ccc4c(c2)NC(=O)CS4)C(=O)O1)CO3 (mixture of isomers) [Example 9, 6-((R)-5-{[2-((RS)-8-methoxy-1,2-dihydro-3-oxa-5,9-diaza-cyclopenta[a]naphthalen-1-yl)-ethylamino]-methyl}-2-oxo-oxazolidin-3-yl)-4H-benzo[1,4]thiazin-3-one]",≤ 0.031
9,"COc1ccc2ccc3c(c2n1)CC(CNC[C@@H]1CN(c2ccc4c(c2)NC(=O)CS4)C(=O)O1)CO3 (mixture of isomers) [Example 1, 6-((R)-5-{[((RS)-6-methoxy-3,4-dihydro-2H-1-oxa-5-aza-phenanthren-3-ylmethyl)-amino]-methyl}-2-oxo-oxazolidin-3-yl)-4H-benzo[1,4]thiazin-3-one]",≤ 0.031
10,"COc1ccc2ncc3c(c2n1)C(CCNC[C@@H]1CN(c2ccc(C)c(F)c2)C(=O)O1)CO3 (mixture of isomers) [Example 11, (R)-3-(3-fluoro-4-methyl-phenyl)-5-{[2-((RS)-8-methoxy-1,2-dihydro-3-oxa-5,9-diaza-cyclopenta[a]naphthalen-1-yl)-ethylamino]-methyl}-oxazolidin-2-one]",0.25
11,"COc1ccc2ncc3c(c2n1)C(CNCC[C@@H]1CN(c2ccc4c(c2)NC(=O)CS4)C(=O)O1)CO3 (mixture of isomers) [Example 14, 6-((R)-5-{2-[((RS)-8-methoxy-1,2-dihydro-3-oxa-5,9-diaza-cyclopenta[a]naphthalen-1-ylmethyl)-amino]-ethyl}-2-oxo-oxazolidin-3-yl)-4H-benzo[1,4]thiazin-3-one]",≤ 0.031
12,"COc1ccc2ncc3c(c2n1)CC(CNC[C@@H]1CN(c2ccc4c(c2)NC(=O)CO4)C(=O)O1)CO3 (mixture of isomers) [Example 3, 6-((R)-5-{[((RS)-6-methoxy-3,4-dihydro-2H-1-oxa-5,9-diaza-phenanthren-3-ylmethyl)-amino]-methyl}-2-oxo-oxazolidin-3-yl)-4H-benzo[1,4]oxazin-3-one]",≤ 0.031
13,"COc1ccc2ncc3c(c2n1)C(CCNC[C@@H]1CN(c2ccc4c(c2)NC(=O)CO4)C(=O)O1)CO3 (mixture of isomers) [Example 10, 6-((R)-5-{[2-((RS)-8-methoxy-1,2-dihydro-3-oxa-5,9-diaza-cyclopenta[a]naphthalen-1-yl)-ethylamino]-methyl}-2-oxo-oxazolidin-3-yl)-4H-benzo[1,4]oxazin-3-one]",≤ 0.031
14,"COc1ccc2ccc3c(c2n1)C(CCNC[C@@H]1CN(c2ccc4c(c2)NC(=O)CS4)C(=O)O1)CO3 (mixture of isomers) [Example 6, 6-((R)-5-{[2-((RS)-2-methoxy-8,9-dihydro-furo[2,3-h]quinolin-9-yl)-ethylamino]-methyl}-2-oxo-oxazolidin-3-yl)-4H-benzo[1,4]thiazin-3-one]",≤ 0.031

# The next lines start with the values.
row,MIC [µg/mL],Structure (SMILES)
1,≤ 0.031,"COc1ccc2ncc3c(c2n1)C(CCNC(=O)[C@@H]1CN(c2ccc4c(c2)OCCO4)C(=O)O1)CO3 (mixture of isomers) [Example 16, (S)-3-(2,3-dihydro-benzo[1,4]dioxin-6-yl)-2-oxo-oxazolidine-5-carboxylic acid [2-((RS)-8-methoxy-1,2-dihydro-3-oxa-5,9-diaza-cyclopenta[a]naphthalen-1-yl)-ethyl]-amide]"
2,≤ 0.031,"COc1ccc2ncc3c(c2n1)CC(CNC[C@@H]1CN(c2ccc4c(c2)NC(=O)CS4)C(=O)O1)O3 (mixture of isomers) [Example 17, 6-((R)-5-{[((RS)-8-methoxy-1,2-dihydro-3-oxa-5,9-diaza-cyclopenta[a]naphthalen-2-ylmethyl)-amino]-methyl}-2-oxo-oxazolidin-3-yl)-4H-benzo[1,4]thiazin-3-one]"
3,≤ 0.031,"COc1ccc2ncc3c(c2n1)C(CNCC[C@H]1CN(c2ccc4c(c2)NC(=O)CS4)C(=O)O1)CO3 (mixture of isomers) [Example 15, 6-((S)-5-{2-[((RS)-8-methoxy-1,2-dihydro-3-oxa-5,9-diaza-cyclopenta[a]naphthalen-1-ylmethyl)-amino]-ethyl}-2-oxo-oxazolidin-3-yl)-4H-benzo[1,4]thiazin-3-one]"
4,1,"COc1ccc2ncc3c(c2n1)[C@@H](CCNCC1CN(c2ccc4c(c2)OCCO4)C(=O)O1)CO3 (mixture of isomers) [Example 20, (RS)-3-(2,3-dihydro-benzo[1,4]dioxin-6-yl)-5-{[2-((R)-8-methoxy-1,2-dihydro-3-oxa-5,9-diaza-cyclopenta[a]naphthalen-1-yl)-ethylamino]-methyl}-oxazolidin-2-one]"
5,≤ 0.031,"COc1ccc2ncc3c(c2n1)CC(CNCC[C@@H]1CN(c2ccc4c(c2)NC(=O)CS4)C(=O)O1)O3 (mixture of isomers) [Example 19, 6-((R)-5-{2-[((RS)-8-methoxy-1,2-dihydro-3-oxa-5,9-diaza-cyclopenta[a]naphthalen-2-ylmethyl)-amino]-ethyl}-2-oxo-oxazolidin-3-yl)-4H-benzo[1,4]thiazin-3-one]"
6,≤ 0.031,"COc1ccc2ncc3c(c2n1)CC(CNCC[C@@H]1CN(c2ccc4c(c2)NC(=O)CO4)C(=O)O1)O3 (mixture of isomers) [Example 18, 6-((R)-5-{2-[((RS)-8-methoxy-1,2-dihydro-3-oxa-5,9-diaza-cyclopenta[a]naphthalen-2-ylmethyl)-amino]-ethyl}-2-oxo-oxazolidin-3-yl)-4H-benzo[1,4]oxazin-3-one]"
